Results: ChEMBL document CHEMBL4602730, “In Vitro and in Vivo Evaluation of Membrane-Active Flavone Amphiphiles: Semisynthetic Kaempferol-Derived Antimicrobials against Drug-Resistant Gram-Positive Bacteria” (J Med Chem, 2020)
Converted amounts (≈) assume the structure as drawn.

How the values were obtained:
Staphylococcus aureus [1] = experiment: Antibacterial activity against Staphylococcus aureus ATCC 29213 assessed as inhibition of bacterial growth incubated for 24 hrs by broth microdilution method; type: functional; conditions: ATCC 29213, 24 h
Staphylococcus aureus [2] = experiment: Antibacterial activity against methicillin-resistant Staphylococcus aureus N315 assessed as inhibition of bacterial growth incubated for 24 hrs by broth microdilution method; type: functional; conditions: N315, 24 h
Staphylococcus aureus [3] = experiment: Antibacterial activity against methicillin-resistant Staphylococcus aureus NCTC 10442 assessed as inhibition of bacterial growth incubated for 24 hrs by broth microdilution method; type: functional; conditions: NCTC 10442, 24 h
[4] = Induction of hemolysis in rabbit RBC incubated for 1 hr; type: cell-based, Oryctolagus cuniculus, Erythrocyte; conditions: rabbit red blood cells (erythrocytes)

`CCCOc1ccc(-c2oc3cc(OCCC)cc(O)c3c(=O)c2OCCCN(CC)CC)cc1` gave an MIC (Staphylococcus aureus [1]) of 12.9 µM (≈ 6.24 µg/mL), an MIC (Staphylococcus aureus [2]) of 12.9 µM (≈ 6.24 µg/mL) and an MIC (Staphylococcus aureus [3]) of 12.9 µM (≈ 6.24 µg/mL). For the same compound, the HC50 at 1 h [4] was 121 µM.
Work on `CC(C)=CCOc1ccc(-c2oc3cc(OCC=C(C)C)cc(O)c3c(=O)c2OCCCN(C)C)cc1` yielded an MIC (Staphylococcus aureus [1]) of 12.3 µM (≈ 6.24 µg/mL), an MIC (Staphylococcus aureus [2]) of 12.3 µM (≈ 6.24 µg/mL) and an MIC (Staphylococcus aureus [3]) of 12.3 µM (≈ 6.24 µg/mL). For the same compound, the HC50 at 1 h [4] was 228 µM.
Work on `CCN(CC)CCCNC(=O)COc1c(-c2ccc(OCC=C(C)C)cc2)oc2cc(OCC=C(C)C)cc(OCC(=O)NCCCN(CC)CC)c2c1=O` yielded an MIC (Staphylococcus aureus [1]) of over 65.5 µM, an MIC (Staphylococcus aureus [2]) of over 65.5 µM and an MIC (Staphylococcus aureus [3]) of over 65.5 µM. For the same compound, the HC50 at 1 h [4] was over 262 µM.
With `CC(C)=CCOc1ccc(-c2oc3cc(OCC=C(C)C)cc(OCC(=O)NCCCN(C)C)c3c(=O)c2OCC(=O)NCCCN(C)C)cc1` the MIC (Staphylococcus aureus [1]) was 35.4 µM (≈ 25 µg/mL), the MIC (Staphylococcus aureus [2]) was 70.7 µM (≈ 50 µg/mL) and the MIC (Staphylococcus aureus [3]) was 70.7 µM (≈ 50 µg/mL). For the same compound, the HC50 at 1 h [4] was over 283 µM.
With `CCCCCOc1ccc(-c2oc3cc(OCCCCC)cc(O)c3c(=O)c2OCCCN(CC)CC)cc1` the MIC (Staphylococcus aureus [1]) was 11.6 µM (≈ 6.26 µg/mL), the MIC (Staphylococcus aureus [2]) was 11.6 µM (≈ 6.26 µg/mL) and the MIC (Staphylococcus aureus [3]) was 23.2 µM (≈ 12.5 µg/mL). The HC50 at 1 h [4] was 284 µM.
`COC(=O)[C@H](Cc1c[nH]cn1)NC(=O)COc1c(-c2ccc(OCC=C(C)C)cc2)oc2cc(OCC=C(C)C)cc(O)c2c1=O` showed an MIC (Staphylococcus aureus [1]) of over 79.2 µM, an MIC (Staphylococcus aureus [2]) of over 79.2 µM and an MIC (Staphylococcus aureus [3]) of over 79.2 µM. For the same compound, the HC50 at 1 h [4] was over 317 µM.
For `CCN(CC)CCCNC(=O)COc1c(-c2ccc(OCC=C(C)C)cc2)oc2cc(OCC=C(C)C)cc(O)c2c1=O`, the MIC (Staphylococcus aureus [1]) was 10.5 µM (≈ 6.22 µg/mL), the MIC (Staphylococcus aureus [2]) was 10.5 µM (≈ 6.22 µg/mL) and the MIC (Staphylococcus aureus [3]) was 21.1 µM (≈ 12.5 µg/mL). For the same compound, the HC50 at 1 h [4] was 80.3 µM.
Compound `CCCCCCCCCOc1ccc(-c2oc3cc(OCCCCCCCCC)cc(O)c3c(=O)c2OCCCN(CC)CC)cc1` has an MIC (Staphylococcus aureus [1]) of over 76.7 µM, an MIC (Staphylococcus aureus [2]) of over 76.7 µM and an MIC (Staphylococcus aureus [3]) of over 76.7 µM. The HC50 at 1 h [4] was over 307 µM.
Compound `CCCNCCCOc1c(-c2ccc(OCC=C(C)C)cc2)oc2cc(OCC=C(C)C)cc(O)c2c1=O` has an MIC (Staphylococcus aureus [1]) of 24 µM (≈ 12.5 µg/mL), an MIC (Staphylococcus aureus [2]) of 6 µM (≈ 3.13 µg/mL) and an MIC (Staphylococcus aureus [3]) of 12 µM (≈ 6.26 µg/mL). For the same compound, the HC50 at 1 h [4] was 49.8 µM.
For `CC(C)=CCOc1ccc(-c2oc3cc(OCC=C(C)C)cc(O)c3c(=O)c2OCC(=O)N[C@@H](CCCNC(=N)N)C(=O)NCCCN(C)C)cc1`, the MIC (Staphylococcus aureus [1]) was 8.7 µM (≈ 6.27 µg/mL), the MIC (Staphylococcus aureus [2]) was 8.7 µM (≈ 6.27 µg/mL) and the MIC (Staphylococcus aureus [3]) was 8.7 µM (≈ 6.27 µg/mL). For the same compound, the HC50 at 1 h [4] was 131 µM.
`CC(C)=CCOc1ccc(-c2oc3cc(OCC=C(C)C)cc(O)c3c(=O)c2OCCCN2CCSCC2)cc1` gave an MIC (Staphylococcus aureus [1]) of over 88.4 µM, an MIC (Staphylococcus aureus [2]) of over 88.4 µM and an MIC (Staphylococcus aureus [3]) of over 88.4 µM. For the same compound, the HC50 at 1 h [4] was over 354 µM.
Compound `CCN(CC)CCCOc1c(-c2ccc(OCC=C(C)C)cc2)oc2cc(OCC=C(C)C)cc(O)c2c1=O` has an MIC (Staphylococcus aureus [1]) of 5.8 µM (≈ 3.11 µg/mL), an MIC (Staphylococcus aureus [2]) of 5.8 µM (≈ 3.11 µg/mL) and an MIC (Staphylococcus aureus [3]) of 5.8 µM (≈ 3.11 µg/mL). For the same compound, the HC50 at 1 h [4] was 59.9 µM.
In the case of `CCN(CC)CCCCCCCCOc1c(-c2ccc(OCC=C(C)C)cc2)oc2cc(OCC=C(C)C)cc(O)c2c1=O`, the MIC (Staphylococcus aureus [1]) was 82.5 µM (≈ 50 µg/mL), the MIC (Staphylococcus aureus [2]) was 20.6 µM (≈ 12.5 µg/mL) and the MIC (Staphylococcus aureus [3]) was 82.5 µM (≈ 50 µg/mL). It also gave an HC50 at 1 h [4] of 29.4 µM.
`CC(C)=CCOc1ccc(-c2oc3cc(OCC=C(C)C)cc(O)c3c(=O)c2OCCCN2CCOCC2)cc1` showed an MIC (Staphylococcus aureus [1]) of over 91 µM, an MIC (Staphylococcus aureus [2]) of over 91 µM and an MIC (Staphylococcus aureus [3]) of over 91 µM. The HC50 at 1 h [4] was over 364 µM.
With `CCCCN(CCCC)CCCOc1c(-c2ccc(OCC=C(C)C)cc2)oc2cc(OCC=C(C)C)cc(O)c2c1=O` the MIC (Staphylococcus aureus [1]) was over 84.5 µM, the MIC (Staphylococcus aureus [2]) was over 84.5 µM and the MIC (Staphylococcus aureus [3]) was over 84.5 µM. For the same compound, the HC50 at 1 h [4] was over 338 µM.
`CCN(CC)CCCCCCCCCCOc1c(-c2ccc(OCC=C(C)C)cc2)oc2cc(OCC=C(C)C)cc(O)c2c1=O` showed an MIC (Staphylococcus aureus [1]) of over 78.9 µM, an MIC (Staphylococcus aureus [2]) of over 78.9 µM and an MIC (Staphylococcus aureus [3]) of over 78.9 µM. For the same compound, the HC50 at 1 h [4] was over 316 µM.
`CC(C)=CCOc1ccc(-c2oc3cc(OCC=C(C)C)cc(O)c3c(=O)c2OCCCN2CCN(C)CC2)cc1` showed an MIC (Staphylococcus aureus [1]) of 22.2 µM (≈ 12.5 µg/mL), an MIC (Staphylococcus aureus [2]) of 11.1 µM (≈ 6.25 µg/mL) and an MIC (Staphylococcus aureus [3]) of 22.2 µM (≈ 12.5 µg/mL). For the same compound, the HC50 at 1 h [4] was 83.3 µM.
With `CCN(CC)CCCCOc1c(-c2ccc(OCC=C(C)C)cc2)oc2cc(OCC=C(C)C)cc(O)c2c1=O` the MIC (Staphylococcus aureus [1]) was 5.7 µM (≈ 3.13 µg/mL), the MIC (Staphylococcus aureus [2]) was 5.7 µM (≈ 3.13 µg/mL) and the MIC (Staphylococcus aureus [3]) was 5.7 µM (≈ 3.13 µg/mL). The HC50 at 1 h [4] was 32.2 µM.
In the case of `CCCCCCCCCOc1ccc(-c2oc3cc(OCCCCCCCCC)cc(O)c3c(=O)c2O)cc1`, the MIC (Staphylococcus aureus [1]) was over 92.8 µM, the MIC (Staphylococcus aureus [2]) was over 92.8 µM and the MIC (Staphylococcus aureus [3]) was over 92.8 µM. It also gave an HC50 at 1 h [4] of over 371 µM.
